Source: ChEMBL document CHEMBL1201862, “PubChem BioAssay data set” (2004)
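Step 1: Grow cells in 96-well plates. Step 2: Expose to compound for 48 hours at 5 concentrations. Step 3: Interpolate endpoints linearly; if unreached, use highest concentration. At the GI50, growth is halved.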 Calls of active or inactive are those of the source. Rule as the data show it: active = GI50 up to about 1.1 µM and inactive = higher. Starred links: 1 amine or outer side, 2 acyl side, 3 side chain; linkers in the order of their positions; H or OH if unused. Positions of bridges follow the written chain, without caps; N, C: chain ends. Non-standard residues stand in square brackets, D forms with d. Residues, ends and D or L forms follow the SMILES beside them. ξ: configuration not given here. X11 = CCC(C)C(N[*:1])C(O)CC(=O)O[C@H](C(=O)C(C)C(=O)[*:2])C(C)C; X10 = O=C([C@@H]1CC(O)CN1[*:1])[*:2]; NMeY = CN[C@@H](Cc1ccc(O)cc1)C(=O)O; ξNMeL = CNC(CC(C)C)C(=O)O; ξT = CC(O)C(N)C(=O)O

What was measured:
Test in all cases: inhibition of tumour cell growth, NCI panel, 48 h
[1] = test system: 786-0
[2] = test system: A549
[3] = test system: CCRF-CEM
[4] = test system: EKVX
[5] = test system: HCT-15
[6] = test system: IGROV-1
[7] = test system: K562
[8] = test system: LOX IMVI
[9] = test system: NCI-H23
[10] = test system: OVCAR-4
[11] = test system: RPMI-8226
[12] = test system: RXF 393
[13] = test system: SF-295
[14] = test system: SF-539
[15] = test system: SK-MEL-5
[16] = test system: SN12C
[17] = test system: SNB-75
[18] = test system: SW-620
[19] = test system: TK-10
[20] = test system: UACC-257

SMILES | GI50 [1] | GI50 [2] | GI50 [3] | GI50 [4] | GI50 [5] [µM] | GI50 [6] | GI50 [7] | GI50 [8] | GI50 [9] | GI50 [10] | GI50 [11] | GI50 [12] | GI50 [13] | GI50 [14] | GI50 [15] | GI50 [16] | GI50 [17] | GI50 [18] | GI50 [19] | GI50 [20]
Fc1cccc(CSc2ncnc3c2ncn3C2CCCS2)c1 (stereo not given) | 20.7 µM (inactive) | 20.1 µM (inactive) | 8.49 µM (inactive) | 18.7 µM (inactive) | 8.51 | 22.4 µM (inactive) | 8.77 µM (inactive) | 13.2 µM (inactive) | 23.9 µM (inactive) | 23.4 µM (inactive) | 7.08 µM (inactive) | 17.3 µM (inactive) | 18.2 µM (inactive) | 11.7 µM (inactive) | 10.5 µM (inactive) | 25.8 µM (inactive) | 17.6 µM (inactive) | 29.9 µM (inactive) | 30.6 µM (inactive) | 15.6 µM (inactive)
C[C@@H]1O[C@]2(O)[C@@H]3CCCN3S(=O)(=O)CCN2C1=O | > 100 µM (inactive) | > 100 µM (inactive) | > 100 µM (inactive) | > 100 µM (inactive) | > 100 | > 100 µM (inactive) | > 100 µM (inactive) | > 100 µM (inactive) | > 100 µM (inactive) | > 100 µM (inactive) | > 100 µM (inactive) | > 100 µM (inactive) | > 100 µM (inactive) | > 100 µM (inactive) | > 100 µM (inactive) | > 100 µM (inactive) | > 100 µM (inactive) | > 100 µM (inactive) | > 100 µM (inactive) | > 100 µM (inactive)
CN(C)C(=S)SCC(N)=O | > 100 µM (inactive) | > 100 µM (inactive) | > 100 µM (inactive) | > 100 µM (inactive) | > 100 | > 100 µM (inactive) | > 100 µM (inactive) | > 100 µM (inactive) | > 100 µM (inactive) | > 100 µM (inactive) | > 100 µM (inactive) | > 100 µM (inactive) | > 100 µM (inactive) | > 100 µM (inactive) | 65.2 µM (inactive) | > 100 µM (inactive) | < 0.01 µM (active) | > 100 µM (inactive) | > 100 µM (inactive) | > 100 µM (inactive)
COc1ccc(-c2cc(=O)c3c(OC)c(O)c(OC)cc3o2)cc1 | 47.4 µM (inactive) | 42.5 µM (inactive) | 38.4 µM (inactive) | 50.8 µM (inactive) | 35 | 33 µM (inactive) | 52.4 µM (inactive) | 36.9 µM (inactive) | 48.5 µM (inactive) | 40.4 µM (inactive) | 27.8 µM (inactive) | 36.6 µM (inactive) | 30.8 µM (inactive) | 77.4 µM (inactive) | 23.4 µM (inactive) | 26.9 µM (inactive) | 21.8 µM (inactive) | 54.3 µM (inactive) | 28.3 µM (inactive) | 36.1 µM (inactive)
CCC(C)C1NC(=O)C(NC(=O)C(CC(C)C)N(C)C(=O)[C@@H]2CC(O)CN2)C(C)OC(=O)[C@H](Cc2ccc(OC)cc2)N(C)C(=O)[C@@H]2CCCN2C(=O)[C@H](CC(C)C)NC(=O)C(C)C(=O)[C@H](C(C)C)OC(=O)CC1O (stereo not given in full) (H-[X10][ξNMeL][ξT][X11]LP[NMeY](Me); ester 3-C) | 0.0121 µM (active) | 0.0228 µM (active) | 0.00233 µM (active) | 0.01 µM (active) | 0.472 | 0.00272 µM (active) | 0.00394 µM (active) | 0.00311 µM (active) | 0.01 µM (active) | 0.00594 µM (active) | 0.0082 µM (active) | 0.0115 µM (active) | 0.0113 µM (active) | 0.00157 µM (active) | < 0.001 µM (active) | 0.00951 µM (active) | 0.0106 µM (active) | 0.0108 µM (active) | 0.164 µM (active) | 0.0152 µM (active)
C[C@]12CC[C@H](O[C@@H]3O[C@H](CO[C@@H]4O[C@H](CO)[C@@H](O)[C@H](O)[C@H]4O)[C@@H](O)[C@H](O)[C@H]3O)C[C@@H]1CC[C@@H]1[C@@H]2CC[C@]2(C)[C@@H](C3=CC(=O)OC3)CC[C@]12O [UZARIN] | 43.6 µM (inactive) | 5.33 µM (inactive) | 4.07 µM (inactive) | 17.7 µM (inactive) | 18.2 | 10.7 µM (inactive) | 24.2 µM (inactive) | 22.1 µM (inactive) | 11.1 µM (inactive) | 17.3 µM (inactive) | 43.4 µM (inactive) | 12.5 µM (inactive) | 17.3 µM (inactive) | 15.5 µM (inactive) | 4.62 µM (inactive) | 20.1 µM (inactive) | 28.4 µM (inactive) | 31.6 µM (inactive) | 18.8 µM (inactive) | 31.3 µM (inactive)
